Values quoted from earlier work as cited in patent US8101199B2, “Des-methyl-tocopherol therapy for restenosis prevention” (Celonova Biosciences, Inc., priority 2003, dated 2012).

Experiments:
[1] = relative to d-Alpha-Toc = 100
coronary restenosis = conditions: clinical trials
femoral arteries = conditions: rabbit; three weeks after angioplasty; oral treatment beginning 19 d before angioplasty
[2] = test system: rabbit vascular smooth muscle cells
native coronary vessels = conditions: addition of 200 mg for all subjects during the study
[3] = test system: previously dilated artery segment; conditions: 1200 IU/day orally for 4 months after PTCA

Cc1cc(O)cc2c1O[C@](C)(CCC[C@H](C)CCC[C@H](C)CCCC(C)C)CC2 [d-Delta-Tocopherol]
Antioxidant Activity (d-Alpha-Toc = 100) [1]: 300–500

CC(C)(Sc1cc(C(C)(C)C)c(O)c(C(C)(C)C)c1)Sc1cc(C(C)(C)C)c(O)c(C(C)(C)C)c1 [Probucol]
prevention of coronary restenosis after balloon angioplasty (coronary restenosis): shown to prevent coronary restenosis

Cc1c(C)c2c(c(C)c1O)CC[C@@](C)(CCC[C@H](C)CCC[C@H](C)CCCC(C)C)O2 [alpha-tocopherol, Alpha-Tocopherol]
angiographically determined minimum luminal diameter (femoral arteries): 1.38+/−0.29 mm
cross-sectional area of the intima-media (femoral arteries): 0.62+/−0.25 mm2
DNA synthesis stimulated by oxidized low density lipoprotein [2]: inhibited DNA synthesis
effect on restenosis rates (native coronary vessels): no effect on restenosis rates

CC(=O)Oc1c(C)c(C)c2c(c1C)CCC(C)(CCCC(C)CCCC(C)CCCC(C)C)O2 (racemic) [dl-ALpha-Tocopherol acet.]
Antioxidant Activity (d-Alpha-Toc = 100) [1]: 0

Cc1c(C)c2c(c(C)c1O)CC[C@@](C)(CCC[C@H](C)CCC[C@H](C)CCCC(C)C)O2 [d-Alpha-Tocopherol]
Antioxidant Activity (d-Alpha-Toc = 100) [1]: 100

Cc1c(O)cc2c(c1C)O[C@](C)(CCC[C@H](C)CCC[C@H](C)CCCC(C)C)CC2 [gamma-tocopherol, Gamma-Tocopherol]
cyclooxygenase activity inhibition (cyclooxygenase): inhibit cyclooxygenase activity

Cc1cc(O)c(C)c2c1O[C@](C)(CCC[C@H](C)CCC[C@H](C)CCCC(C)C)CC2 [d-Beta-Tocopherol]
Antioxidant Activity (d-Alpha-Toc = 100) [1]: 130

Cc1c(O)cc2c(c1C)OC(C)(CCC(=O)O)CC2 (stereo not drawn) [gamma-CEHC, 2,7,8-trimethyl-2-(beta-carboxyethyl)-6-hydroxychroman]
cyclooxygenase activity inhibition (cyclooxygenase): inhibit cyclooxygenase activity

Cc1c(O)cc2c(c1C)O[C@](C)(CCC[C@H](C)CCC[C@H](C)CCCC(C)C)CC2 [d-Gamma-Tocopherol]
Antioxidant Activity (d-Alpha-Toc = 100) [1]: 200

CC(=O)Oc1c(C)c(C)c2c(c1C)CC[C@@](C)(CCC[C@H](C)CCC[C@H](C)CCCC(C)C)O2 [d-Alpha-Tocopherol acet.]
Antioxidant Activity (d-Alpha-Toc = 100) [1]: 0

Cc1c(C)c2c(c(C)c1O)CCC(C)(CCCC(C)CCCC(C)CCCC(C)C)O2 (racemic) [dl-Alpha-Tocopherol]
Antioxidant Activity (d-Alpha-Toc = 100) [1]: 100
overall incidence of restenosis defined by an abnormal angiogram or thallium test or exercise stress test [3]: 34.6%
restenosis (angiographically documented) [3]: 35.5%
